Results from PubChem BioAssay AID2060333 (Molecular Pharmacology Branch, DTP, NCI, 2025).

Tested on: 845751-090-R-J2-PDC tumor spheroid viability
Assay: Anticancer human tumor 845751-090-R-J2-PDC patient-derived head and neck squamous carcinoma cell line growth inhibition [IpAb]
Details: spheroids with HUVEC and MSC; for IC50: curve of first compound; for viability, T/C: stronger effect = lower value
Excerpt: Combinatorial screen of targeted agents with ipatasertib and abemaciclib in multi-cell type tumor spheroids
A high-throughput screen of multi-cell type tumor spheroids was designed to identify active combinations of targeted small molecules and ipatasertib or abemaciclib. Complex spheroids include a stromal component modeled by human endothelial cells (HUVEC) and fibroblasts modeled by human mesenchymal stem cells (MSCs). The concentration ranges selected for each drug and investigational agent were based upon clinically achievable concentrations if the clinical Cmax of the agent was known.
Compounds. The drugs and investigational agents: ipatasertib (NSC767898), abemaciclib(NSC768073), selumetinib (NSC741078), trametinib (758246), adavosertib (NSC754352), everolimus (NSC733504), sapanisertib (NSC764658), vemurafenib (NSC761431), venetoclax (NSC766270), copanlisib (NSC809693), apelisib (NSC765974), palbociblib (NSC758247), vemurafenib (NSC761431), dabrafenib (NSC764134), ravoxertinib (NSC781343), BMS-387032 (NSC767048), sotorasib (NSC818433), talazoparib (NSC767125) and afursertib (NSC778305), were obtained from the National Cancer Institute (NCI) Developmental Therapeutics Program Chemical Repository. The FDA-approved anticancer drug set is available from the NCI Developmental Therapeutics Program. […] The stock solutions were prepared in dimethyl sulfoxide (DMSO, Sigma-Aldrich, St. Louis, MO, cat. D2650) at 800-fold the tested concentration and stored at -70 degrees C prior to their use. All drugs and investigational agents were tested over a range starting from a high concentration at or near the clinical Cmax and decreasing in half-log increments. If the clinical Cmax for an agent had not been determined, the highest concentration tested was 10 microM.
NCI60 Cell Culture. NCI60 cell lines were obtained from the NCI Developmental Therapeutics Program Tumor Repository. For each lot of cells, the Repository performed Applied Biosystems AmpFLSTR Identifiler testing with PCR amplification to confirm consistency with the published Identifier STR profile for each cell line. Cells were kept in continuous culture for no more than 20 passages. The optimal seeding densities for each of the cell lines at each time point assessed were determined prior to performing the concentration response studies. Briefly, the NCI60 human tumor lines were grown as monolayers in RPMI 1640 medium supplemented with 10% FBS and 2 mmol/L L-glutamine.
An additional 9 lines were from the NCI60 cell line panel including MDA-MB-231 breast carcinoma, MDA-MB-468 breast carcinoma, MCF7 breast carcinoma, Hs578T breast carcinoma, MALME-3M melanoma, SK-MEL-2 melanoma, SK-OV-3 ovarian carcinoma, DU-145 prostate carcinoma, PC-3 prostate carcinoma, all cell lines along with major genetic alterations are listed on Table 2. Pooled donor human umbilical vein endothelial cells (HUVEC, Lonza, cat. CC-2519) and human mesenchymal stem cells (hMSC, Lonza, cat. PT-2501) were purchased from Lonza (Walkersville, MD).
PDMR cell lines were grown in complete medium (DC medium): Dulbecco's modified Eagle's medium (DMEM)/F12 supplemented with 5% fetal bovine serum (FBS), 2 mM L-glutamine, 100 U/mL penicillin and 100 µg/ml streptomycin, 0.4 µg/ml hydrocortisone, 10 ng/ml epidermal growth factor (EGF) recombinant human protein, 24 µg/mL adenine, and 0.1 mg/mL primocin. During culture from frozen stock vials, PDMR cells were cultured in the same medium containing 10 µM Y-27632 (see Table 3). The PDCs were cultured in complete DMEM/F12 media without 10 microM Y-27632 dihydrochloride for at least two passages prior to the screen. The pooled donor HUVEC and hMSC were cultured in endothelial cell growth medium 2 (PromoCell, Heidelberg, Germany, cat. C-22011) and mesenchymal stem cell growth medium 2 (PromoCell, cat. C-28009), respectively. For all experiments, HUVEC and hMSC were used at passages </=5.
[…]

[1] = second compound 0.1 µM, first compound 0.0316 µM
[2] = second compound 0.1 µM, first compound 0.1 µM
[3] = second compound 0.316 µM, first compound 0.0316 µM
[4] = second compound 0.316 µM, first compound 0.1 µM
[5] = second compound 1 µM, first compound 0.0316 µM
[6] = second compound 1 µM, first compound 0.1 µM
[7] = second compound 3.16 µM, first compound 0.0316 µM
[8] = second compound 3.16 µM, first compound 0.1 µM
[9] = second compound 10 µM, first compound 0.0316 µM
[10] = second compound 10 µM, first compound 0.1 µM
[11] = second compound 0.1 µM, first compound 0.316 µM
[12] = second compound 0.1 µM, first compound 1 µM
[13] = second compound 0.1 µM, first compound 3.16 µM
[14] = second compound 0.1 µM, first compound 10 µM
[15] = second compound 0.316 µM, first compound 0.316 µM
[16] = second compound 0.316 µM, first compound 1 µM
[17] = second compound 0.316 µM, first compound 3.16 µM
[18] = second compound 0.316 µM, first compound 10 µM
[19] = second compound 1 µM, first compound 0.316 µM
[20] = second compound 1 µM, first compound 1 µM
[21] = second compound 1 µM, first compound 3.16 µM
[22] = second compound 1 µM, first compound 10 µM
[23] = second compound 3.16 µM, first compound 0.316 µM
[24] = second compound 3.16 µM, first compound 1 µM
[25] = second compound 3.16 µM, first compound 3.16 µM
[26] = second compound 3.16 µM, first compound 10 µM
[27] = second compound 10 µM, first compound 0.316 µM
[28] = second compound 10 µM, first compound 1 µM
[29] = second compound 10 µM, first compound 3.16 µM
[30] = second compound 10 µM, first compound 10 µM
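Note: spheroids exposed to compounds for 7 days before readout.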
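Throughout, for viability, T/C: CTG3D luminescence normalised so that 100% = DMSO vehicle control.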

Structure (SMILES)	IC50 (second compound 0.1 µM) [nM]	IC50 (second compound 0.316 µM) [nM]	IC50 (second compound 1 µM) [nM]	IC50 (second compound 3.16 µM) [nM]	IC50 (second compound 10 µM) [nM]	viability, T/C [1] [%]	viability, T/C [2] [%]	viability, T/C [3] [%]	viability, T/C [4] [%]	viability, T/C [5] [%]	viability, T/C [6] [%]	viability, T/C [7] [%]	viability, T/C [8] [%]	viability, T/C [9] [%]	viability, T/C [10] [%]	viability, T/C [11] [%]	viability, T/C [12] [%]	viability, T/C [13] [%]	viability, T/C [14] [%]	viability, T/C [15] [%]	further results
CC(C)n1nc(-c2ccc3oc(N)nc3c2)c2c(N)ncnc21 + CC(C)NCC(C(=O)N1CCN(c2ncnc3c2C(C)CC3O)CC1)c1ccc(Cl)cc1	1.3	< 0.316	< 0.316	< 0.316	< 0.316	21.2	21.8	11.2	9.02	8.17	9.76	4	3.17	2.07	1.99	–	–	–	–	–	viability, T/C (second compound 0.1 µM, first compound 0.000316 µM): 55.2%; viability, T/C (second compound 0.1 µM, first compound 0.001 µM): 48.8%; viability, T/C (second compound 0.1 µM, first compound 0.00316 µM): 45.1%; viability, T/C (second compound 0.1 µM, first compound 0.01 µM): 28.1%; viability, T/C (second compound 0.316 µM, first compound 0.000316 µM): 36%; viability, T/C (second compound 0.316 µM, first compound 0.001 µM): 27.3%; viability, T/C (second compound 0.316 µM, first compound 0.00316 µM): 23.3%; viability, T/C (second compound 0.316 µM, first compound 0.01 µM): 13.5%; viability, T/C (second compound 1 µM, first compound 0.000316 µM): 22.4%; viability, T/C (second compound 1 µM, first compound 0.001 µM): 22.9%; viability, T/C (second compound 1 µM, first compound 0.00316 µM): 12.2%; viability, T/C (second compound 1 µM, first compound 0.01 µM): 8.4%; viability, T/C (second compound 3.16 µM, first compound 0.000316 µM): 24.3%; viability, T/C (second compound 3.16 µM, first compound 0.001 µM): 13.1%; viability, T/C (second compound 3.16 µM, first compound 0.00316 µM): 8.4%; viability, T/C (second compound 3.16 µM, first compound 0.01 µM): 5.71%; viability, T/C (second compound 10 µM, first compound 0.000316 µM): 8.63%; viability, T/C (second compound 10 µM, first compound 0.001 µM): 7.55%; viability, T/C (second compound 10 µM, first compound 0.00316 µM): 4.17%; viability, T/C (second compound 10 µM, first compound 0.01 µM): 4.42%
CC1(C)CCC(CN2CCN(c3ccc(C(=O)NS(=O)(=O)c4ccc(NCC5CCOCC5)c([N+](=O)[O-])c4)c(Oc4cnc5[nH]ccc5c4)c3)CC2)=C(c2ccc(Cl)cc2)C1 + CC(C)NCC(C(=O)N1CCN(c2ncnc3c2C(C)CC3O)CC1)c1ccc(Cl)cc1	5770	< 31.6	< 31.6	< 31.6	< 31.6	65.2	83	30.5	38.3	28.6	27.6	26.7	27.3	13.1	14.6	81.9	67	111	20.9	53.5	viability, T/C [16]: 44%; viability, T/C [17]: 47%; viability, T/C [18]: 14.4%; viability, T/C [19]: 54.8%; viability, T/C [20]: 33.1%; viability, T/C [21]: 33.6%; viability, T/C [22]: 7.48%; viability, T/C [23]: 31.5%; viability, T/C [24]: 29.5%; viability, T/C [25]: 42.4%; viability, T/C [26]: 5.79%; viability, T/C [27]: 38.2%; viability, T/C [28]: 15.5%; viability, T/C [29]: 22%; viability, T/C [30]: 3.52%
CCCS(=O)(=O)Nc1ccc(F)c(C(=O)c2c[nH]c3ncc(-c4ccc(Cl)cc4)cc23)c1F + CC(C)NCC(C(=O)N1CCN(c2ncnc3c2C(C)CC3O)CC1)c1ccc(Cl)cc1	> 10000	126	< 31.6	< 31.6	< 31.6	74.3	75.2	47.2	52.1	46.5	45.9	41.9	42.6	18.7	17.2	63	61.6	49	53.4	46.1	viability, T/C [16]: 55.4%; viability, T/C [17]: 56.7%; viability, T/C [18]: 38.8%; viability, T/C [19]: 37.6%; viability, T/C [20]: 31.2%; viability, T/C [21]: 42.5%; viability, T/C [22]: 24.8%; viability, T/C [23]: 29%; viability, T/C [24]: 26.5%; viability, T/C [25]: 32%; viability, T/C [26]: 16.3%; viability, T/C [27]: 19.6%; viability, T/C [28]: 14.7%; viability, T/C [29]: 15.7%; viability, T/C [30]: 7.71%
